# Assay results reported in patent US20130245081A1, “Compositions and Methods for Treating Amyotrophic Lateral Sclerosis” (priority 2009, published 2013).
# Marks after values point to notes of the source that are not given here.
# Tested on: patients with ALS
# Assay: Part 2: 4-week single-blind placebo washout period (withdrawal effects)
# [1] = 150 mg during Part 1, placebo washout period
# [2] = 300 mg during Part 1, placebo washout period
smiles,measurement,setting,value
"CCCN[C@@H]1CCc2nc(N)sc2C1 [dexpramipexole, (6R)-2-amino-4,5,6,7-tetrahydro-6-(propylamino)benzothiazole]",Number of serious TEAEs,[1],0
same,Number of severe TEAEs,[1],0
same,Number of treatment-related TEAEs,[1],5
same,Subjects with a TEAE with action taken of study drug discontinued,[1],0 N (%)
same,Subjects with ≧1 ALS-related TEAE,[1],7 (28%) N (%)
same,TEAE: Anxiety,[1],0 N (%)
same,TEAE: Back pain,[1],0 N (%)
same,TEAE: Constipation,[1],1 (4%) N (%)
same,TEAE: Cough,[1],2 (8%) N (%)
same,TEAE: Diarrhoea,[1],2 (8%) N (%)
same,TEAE: Dyspnoea,[1],0 N (%)
same,TEAE: Fall,[1],3 (12%) N (%)
same,TEAE: Gastrointestinal Disorders,[1],5 (20%) N (%)
same,TEAE: General Disorders and Administration Site Conditions,[1],1 (4%) N (%)
same,"TEAE: Injury, Poisoning and Procedural Complications",[1],4 (16%) N (%)
same,TEAE: Muscle spasms,[1],1 (4%) N (%)
same,TEAE: Muscular weakness,[1],1 (4%) N (%)
same,TEAE: Musculoskeletal and Connective Tissue Disorders,[1],3 (12%) N (%)
same,TEAE: Nausea,[1],1 (4%) N (%)
same,TEAE: Post lumbar puncture syndrome,[1],1 (4%) N (%)
same,TEAE: Psychiatric Disorders,[1],2 (8%) N (%)
same,TEAE: Pyrexia,[1],0 N (%)
same,"TEAE: Respiratory, Thoracic and Mediastinal Disorders",[1],2 (8%) N (%)
same,mean change from baseline in ALSFRS-R score over 4 weeks,[1],−1.0
same,mean change from baseline in VC over 4 weeks,[1],−1.7%
same,serious TEAE: Disease progression,[1],0 N (%)
same,serious TEAE: Dyspnoea,[1],0 N (%)
same,serious TEAE: General Disorders and Administration Site Conditions,[1],0 N (%)
same,serious TEAE: Renal and Urinary Disorders,[1],0 N (%)
same,"serious TEAE: Respiratory, Thoracic and Mediastinal Disorders",[1],0 N (%)
same,serious TEAE: Urethral obstruction,[1],0 N (%)
same,serious TEAE: Urinary retention,[1],0 N (%)
same,≧1 TEAE,[1],13 (52%) N (%)
same,≧1 TEAE with an outcome of death,[1],0 N (%)
same,≧1 serious TEAE (including death),[1],0 N (%)
same,≧1 serious treatment-related TEAE,[1],0 N (%)
same,≧1 severe TEAE,[1],0 N (%)
same,≧1 treatment-related TEAE,[1],2 (8%) N (%)
same,"Neutrophil Count, Mean (SD)","300 mg during Part 1, Baseline (Part 1: Week 12)",3.905 (1.9377) ×10^3/μL
same,"Neutrophil Count, Mean (SD)","300 mg during Part 1, Part 2: Week 4 (end of placebo washout)",4.112 (1.1979) ×10^3/μL
same,ALS-related TEAE: Disease progression,[2],0 N (%)
same,ALS-related TEAE: Dyspnoea,[2],1 (4%) N (%)
same,ALS-related TEAE: Fall,[2],2 (8%) N (%)
same,ALS-related TEAE: General Disorders and Administration Site Conditions,[2],0 N (%)
same,"ALS-related TEAE: Injury, Poisoning and Procedural Complications",[2],2 (8%) N (%)
same,ALS-related TEAE: Muscle spasms,[2],1 (4%) N (%)
same,ALS-related TEAE: Muscular weakness,[2],0 N (%)
same,ALS-related TEAE: Musculoskeletal and Connective Tissue Disorders,[2],1 (4%) N (%)
same,"ALS-related TEAE: Respiratory, Thoracic and Mediastinal Disorders",[2],1 (4%) N (%)
same,"Neutrophil Count, Mean Δ (SD) from baseline to Week 4",[2],0.130 (1.3502) ×10^3/μL
same,Number of TEAEs,[2],46
same,Number of serious TEAEs,[2],1
same,Number of severe TEAEs,[2],1
same,Number of treatment-related TEAEs,[2],3
same,Subjects with a TEAE with action taken of study drug discontinued,[2],1 (4%)^b N (%)
same,Subjects with ≧1 ALS-related TEAE,[2],5 (21%) N (%)
same,TEAE: Anxiety,[2],0 N (%)
same,TEAE: Back pain,[2],1 (4%) N (%)
same,TEAE: Constipation,[2],3 (13%) N (%)
same,TEAE: Cough,[2],0 N (%)
same,TEAE: Diarrhoea,[2],1 (4%) N (%)
same,TEAE: Dyspnoea,[2],1 (4%) N (%)
same,TEAE: Fall,[2],3 (13%) N (%)
same,TEAE: Gastrointestinal Disorders,[2],3 (13%) N (%)
same,TEAE: General Disorders and Administration Site Conditions,[2],3 (13%) N (%)
same,"TEAE: Injury, Poisoning and Procedural Complications",[2],6 (25%) N (%)
same,TEAE: Muscle spasms,[2],1 (4%) N (%)
same,TEAE: Muscular weakness,[2],0 N (%)
same,TEAE: Musculoskeletal and Connective Tissue Disorders,[2],2 (8%) N (%)
same,TEAE: Nausea,[2],2 (8%) N (%)
same,TEAE: Post lumbar puncture syndrome,[2],1 (4%) N (%)
same,TEAE: Psychiatric Disorders,[2],0 N (%)
same,TEAE: Pyrexia,[2],2 (8%) N (%)
same,"TEAE: Respiratory, Thoracic and Mediastinal Disorders",[2],1 (4%) N (%)
same,mean change from baseline in ALSFRS-R score over 4 weeks,[2],−1.5
same,mean change from baseline in VC over 4 weeks,[2],−2.7%
same,serious TEAE: Disease progression,[2],0 N (%)
same,serious TEAE: Dyspnoea,[2],1 (4%) N (%)
same,serious TEAE: General Disorders and Administration Site Conditions,[2],0 N (%)
same,serious TEAE: Renal and Urinary Disorders,[2],0 N (%)
same,"serious TEAE: Respiratory, Thoracic and Mediastinal Disorders",[2],1 (4%) N (%)
same,serious TEAE: Urethral obstruction,[2],0 N (%)
same,serious TEAE: Urinary retention,[2],0 N (%)
same,subjects who required a tracheostomy,[2],1 subject
same,≧1 TEAE,[2],11 (46%) N (%)
same,≧1 TEAE with an outcome of death,[2],0 N (%)
same,≧1 serious TEAE (including death),[2],1 (4%) N (%)
same,≧1 serious treatment-related TEAE,[2],0 N (%)
same,≧1 severe TEAE,[2],1 (4%) N (%)
same,≧1 treatment-related TEAE,[2],2 (8%) N (%)
